“And” between values parts separate entries of the source, which are not always exact repeats. Identical values can stand only once. “Also recorded” adds a separate entry of the source.
Legend:
[1] = Plasma pharmacokinetics of ZST316 and L-257 after intraperitoneal ZST316 in MDA-MB-231 xenograft mice (HPLC-MS/MS); type: in vivo, SCID mice
Experimental: (§1) Six-week-old female severe combined immunodeficiency disease (SCID) mice (n = 24; Charles River Laboratories Italia S.r.L., Calco, Lecco, Italy), were housed under rigorous standards and handled under pathogen-free conditions in the Animal Care Facilities of the Mario Negri Institute for Pharmacological Research (Milan, Italy).
(§2) Two ×10^6 (in 10 μL) MDA-MB-231 TNBC cells were transplanted into the mammary fat pad. Tumour growth was regularly monitored with a calliper and treatment with ZST316 was given when the tumour volume reached 400–500 mm^3. Mice received either a single dose (acute treatment) or a daily dose of ZST316 30 mg/Kg intraperitoneally for five days (chronic treatment).
(§3) Plasma and tumour tissue (n = 3 mice/each time point) were sampled at 1, 8 and 24 h after treatment (on day 5 for the chronic treatment). To collect plasma, mice were anesthetized by isoflurane, the blood was drained from the retro-orbital plexus into heparinised tubes and centrifuged for 10 min at 4000× g at 4 °C. Tumours were collected and immediately frozen. Plasma and tumour samples were stored at −20 °C until analysis.
To assay ZST316 and L-257, 10 μL of IS (ZST152 WS: 500 ng/mL) were added to 100 μL of study plasma samples, standards, and QCs in a polypropylene tube. The samples were then added with 10 μL of NH4COOH 50 mM, mixed and added with 400 μL CH3OH:0.1% HCOOH, vortex mixed again and centrifuged at 13,200 rpm for 10 min at 4 °C. The supernatant was transferred to a 1.5 mL Eppendorf tube, dried under nitrogen flow and reconstituted with 100 μL of mobile phase (MP) A:B (1:1, v/v). Finally, the samples were centrifuged at 13,200 rpm for 10 min at 4 °C and the supernatant transferred into vials for HPLC-MS/MS analysis.
(§4) Reversed-phase chromatography was performed under gradient conditions with separation on a HILIC column, C18, 3 μm, 100 A, 2.1 × 150 mm, Waters (Milford, MA, USA), coupled with a 3 μm, 3.9 × 5.0 mm guard column of the same material at the flow rate of 0.2 mL/min. Gradient features were: 10% mobile phase (MP) A (NH4HCO2 10 mM, 10% CH3CN, 0.1% HCOOH) and 90% MP B (CH3CN, 0.1% HCOOH) as initial constant condition; then to 90% MP A in 6 min and constant condition for 1.5 min. Return to start condition in 0.5 min and conditioning for 5.5 min. Total run time: 13.5 min. Analyte detection and quantification were performed using tandem mass spectrometry (MS/MS) operating in positive ionization mode as previously reported for ZST316 and ZST152 [31].

[2] = Tumour distribution of ZST316 and L-257 after intraperitoneal ZST316 in MDA-MB-231 TNBC xenograft (HPLC-MS/MS); type: in vivo, SCID mice; conditions: for time intra-tumour concentration remained above the IC50 and Ki values for DDAH1 inhibition: estimated
Experimental: as §1, §2, §3
Control MDA-MB-231 TNBC cell tumours were homogenized with NH4COOH 50 mM (1:4, w:v). The homogenate (90 μL) was spiked with 5 μL of ZST316 and L-257 working solutions prepared in the range of 100–10,000 ng/mL generating seven tumour calibration standards in the range 25–5000 ng/g. The calibration curve included also a blank and a zero blank standard plasma sample (processed with IS). To prepare QC samples, 90 μL of the homogenate was mixed with an appropriate amount of QC working solutions to obtain QC plasma samples at the nominal concentration of 75, 375, and 1250 ng/g.
The procedure was similar to that described for plasma in Section 3.3.2.
as §4

[3] = Stability of ZST316 and L-257 in frozen plasma; type: in vitro ADME, mice; conditions: for Mean found value, Stability −20 °C / Accuracy (%), Stability −20 °C: plasma QC, one month at −20 °C; for Mean found value, Stability −20 °C: n=3; for Accuracy (%), Stability −20 °C: percent of nominal
Experimental: The stability of ZST316 and L-257 in plasma was assessed by analysing QC samples containing both compounds after prolonged storage in the same conditions of the study samples.
Stability was determined by analysing 3 QCs per concentration level immediately after the preparation, and 3 QCs per concentration level after one month of storage at −20 °C. The analytes were considered stable at each QC concentration when the freshly prepared samples and the stability test samples differed by no more than 15% from the nominal concentrations.

DDAH1 = conditions: cited from earlier work
[4] = acute (single dose) ZST316 30 mg/Kg i.p., 1 h
[5] = acute ZST316 30 mg/Kg i.p., 1 h
[6] = acute ZST316 30 mg/Kg i.p., 8 h
[7] = acute ZST316 30 mg/Kg i.p., 8 h, n=3
[8] = acute ZST316 30 mg/Kg i.p., 24 h
[9] = acute ZST316 30 mg/Kg i.p., approximately estimated due to limited time points
[10] = chronic (five-day) ZST316 30 mg/Kg i.p. daily, 1 h
[11] = chronic (five-day) ZST316 30 mg/Kg i.p. daily, 24 h
[12] = chronic ZST316 30 mg/Kg i.p. daily
[13] = chronic ZST316 30 mg/Kg i.p. daily, day 5, 1 h
[14] = chronic ZST316 30 mg/Kg i.p. daily, day 5, 8 h
[15] = chronic ZST316 30 mg/Kg i.p. daily, day 5, 8 h, n=3
[16] = chronic ZST316 30 mg/Kg i.p. daily, day 5, 24 h
[17] = chronic ZST316 30 mg/Kg i.p. daily, approximately estimated due to limited time points
[18] = range over acute and chronic treatment

mean plasma concentration [1, 4]: 2.02 µg/mL
Cmax ([1]; acute ZST316 30 mg/Kg i.p.): 8.7 µM
Cmax plasma ([1]; acute ZST316 30 mg/Kg i.p.): 2020 ng/mL
Plasma AUC1–24 h ([1]; acute ZST316 30 mg/Kg i.p.): 0.061
Plasma AUC1–24 h ([1]; acute ZST316 30 mg/Kg i.p. (day 1)): 14.1 µg·h/mL
mean plasma concentration [1, 7]: 385 ng/mL and 1.66 μM
half-life plasma [1, 9]: 4.2 h
mean plasma concentration [1, 10]: 1.60 µg/mL
mean plasma concentration [1, 11]: 0.06 µg/mL
Cmax [1, 12]: 6.89 µM
Cmax plasma [1, 12]: 1600 ng/mL
Plasma AUC1–24 h [1, 12]: 0.044
Plasma AUC1–24 h ([1]; chronic ZST316 30 mg/Kg i.p. daily (day 5)): 10.3 µg·h/mL
mean plasma concentration [1, 15]: 198 ng/mL and 0.85 μM
half-life plasma [1, 17]: 5.3 h
half-life plasma [1, 18]: 4.2 to 5.3 h
measured concentration in unknown study plasma sample (Figure 2) ([1]; representative chromatogram, sample taken at 1 h after acute treatment (b8)): 1710 ng/mL
mean intra-tumour concentration [2, 4]: 3.5 µg/g
mean intra-tumour concentration ([2]; acute (single dose) ZST316 30 mg/Kg i.p., 24 h): 0.04 µg/g
Cmax tumour ([2]; acute ZST316 30 mg/Kg i.p.): 3.50 μg/g and 15.08 μM
tumour AUC ([2]; acute ZST316 30 mg/Kg i.p.): 23.9 µg·h/g
mean tumour concentration [2, 7]: 645 ng/g and 2.78 μM
half-life tumour [2, 9]: 3.6 h
time intra-tumour concentration remained above the IC50 and Ki values for DDAH1 inhibition ([2]; after acute ZST316 treatment): 4 h
time intra-tumour concentration remained above the IC50 and Ki values for DDAH1 inhibition ([2]; after chronic ZST316 treatment): 3.5 h
mean intra-tumour concentration [2, 10]: 3.24 µg/g
mean intra-tumour concentration [2, 11]: 0.10 µg/g
Cmax tumour [2, 12]: 3.24 μg/g and 13.96 μM
tumour AUC [2, 12]: 20.3 µg·h/g
mean tumour concentration [2, 15]: 381 ng/g and 1.64 μM
mean tumour concentration [2, 16]: 97 ng/g
mean tumour concentration ([2]; chronic ZST316 30 mg/Kg i.p. daily, day 5, 24 h, n=3): 0.30 µM
half-life tumour [2, 17]: 4.9 h
half-life tumour [2, 18]: 3.6 to 4.9 h
measured concentration in unknown study tumour sample (Figure 3) ([2]; representative chromatogram, sample taken at 24 h after acute treatment (b8)): 30.7 ng/g
stability in frozen plasma ([3]; at least one month at −20 °C): stable
Mean found value, Stability −20 °C ([3]; actual value 15.00 ng/mL): 15.8 ng/mL
Accuracy (%), Stability −20 °C ([3]; actual value 15.00 ng/mL): 105.6%
Mean found value, Stability −20 °C ([3]; actual value 75.00 ng/mL): 75.7 ng/mL
Accuracy (%), Stability −20 °C ([3]; actual value 75.00 ng/mL): 101.0%
Mean found value, Stability −20 °C ([3]; actual value 250.00 ng/mL): 259.5 ng/mL
Accuracy (%), Stability −20 °C ([3]; actual value 250.00 ng/mL): 103.8%
Compound: COCCNC(N)=NCCC[C@H](N)C(=O)O [L-257]
accumulation in plasma and tumour during chronic treatment ([1]; ZST316 30 mg/Kg i.p. daily for five days, day 5 vs day 1): without accumulation; also recorded: no accumulation
plasma concentration, individual mice [1, 5]: 2610 ng/mL and 1700 ng/mL and 1760 ng/mL and 11.24 µM and 7.32 µM and 7.58 µM
plasma concentration, individual mice [1, 6]: 272 ng/mL and 382 ng/mL and 2.16 µM and 1.17 µM and 1.65 µM and 502 ng/mL
plasma concentration, individual mice [1, 8]: 38 ng/mL and 32.5 ng/mL and 47.8 ng/mL and 0.16 µM and 0.14 µM and 0.21 µM
plasma concentration, individual mice [1, 13]: 1600 ng/mL and 1500 ng/mL and 1710 ng/mL and 6.89 µM and 6.46 µM and 7.37 µM
plasma concentration, individual mice [1, 14]: 249 ng/mL and 136 ng/mL and 0.90 µM and 1.07 µM and 0.59 µM and 209 ng/mL
plasma concentration, individual mice [1, 16]: 58.8 ng/mL and 95.2 ng/mL and 29.1 ng/mL and 0.25 µM and 0.41 µM and 0.13 µM
tumour concentration, individual mice [2, 5]: 3590 ng/g and 2810 ng/g and 4090 ng/g and 15.5 µM and 12.1 µM and 17.6 µM
tumour concentration, individual mice [2, 6]: 225 ng/g and 1060 ng/g and 2.8 µM and 0.97 µM and 4.57 µM and 651 ng/g
tumour concentration, individual mice [2, 8]: 30.7 ng/g and 33.1 ng/g and 56.1 ng/g and 0.13 µM and 0.14 µM and 0.24 µM
tumour concentration, individual mice [2, 13]: 3550 ng/g and 2810 ng/g and 3350 ng/g and 15.29 µM and 12.10 µM and 14.43 µM
tumour concentration, individual mice [2, 14]: 413 ng/g and 403 ng/g and 326 ng/g and 1.78 µM and 1.74 µM and 1.40 µM
tumour concentration, individual mice [2, 16]: 35.5 ng/g and 159 ng/g and < LOQ and 0.15 µM and 0.68 µM and 0.05 µM
Ki (DDAH1; dotted line in figures): 7 µM
Ki expressed as concentration (DDAH1; equivalent of 7 μM): 1.625 µg/mL

— PMC10746103, “Development of a HPLC-MS/MS Method to Assess the Pharmacokinetics and Tumour Distribution of the Dimethylarginine Dimethylaminohydrolase 1 Inhibitors ZST316 and L-257 in a Xenograft Model of Triple-Negative Breast Cancer in Mice” (Molecules, 2023)
